Experiments:
[1] = system: Hepatitis B Virus (HBV); test: Serum HBeAg levels in pHBV model mice (ELISA); type: in vivo; parameters: key to Average HBeAg levels normalized to pre-treatment and PBS control: ratio to pre-treatment level, divided by PBS control ratio; settings: for Average HBeAg fold knockdown normalized to pre-treatment and PBS control / Average HBeAg levels normalized to pre-treatment and PBS control: single s.c. injection day 1, Example 7; for Average HBeAg levels normalized to pre-treatment and PBS control: pooled serum
Description: (§1) Six to eight-week-old female NOD.CB17-Prkdscid/NcrCrl (NOD-SCID) mice were transiently transfected in vivo with MC-HBV1.3 by hydrodynamic tail vein injection (Yang P L et al. “Hydrodynamic injection of viral DNA: a mouse model of acute hepatitis B virus infection,” PNAS USA 2002 Vol. 99: p. 13825-13830), administered 30 to 45 days prior to administration of an HBV RNAi agent or control. MC-HBV1.3 is a plasmid-derived minicircle that contains the same terminally redundant human hepatitis B virus sequence HBV1.3 as in plasmid pHBV1.3 and in the HBV1.3.32 transgenic mice (GenBank accession #V01460) (Guidotti L G et al., “High-level hepatitis B virus replication in transgenic mice,” J Virol 1995 Vol. 69, p 6158-6169.). 5 or 10 μg MC-HBV1.3 in Ringer's Solution in a total volume of 10% of the animal's body weight was injected into mice via tail vein to create pHBV model of chronic HBV infection. The solution was injected through a 27-gauge needle in 5-7 seconds as previously described (Zhang G et al., “High levels of foreign gene expression in hepatocytes after tail vein injection of naked plasmid DNA.” Human Gene Therapy 1999 Vol. 10, p 1735-1737.). At pre-dose (either day 1 pre-dose, day −1, or day −2), Hepatitis B surface antigen (HBsAg) HBsAg expression levels in serum were measured by ELISA and the mice were grouped according to average HBsAg expression levels.
(§2) HBV expression levels were normalized to pre-administration expression levels and to control mice injected with phosphate buffered saline (“PBS”).
HBeAg analysis was performed with the HBeAg enzyme linked immunosorbent assay (ELISA) as described by the manufacturer (DiaSorin) using serum diluted 4- to 20-fold in 5% nonfat dry milk. The amount of antigen was determined in the linear range of the assay and quantitated against HBeAg protein standards (Fitzgerald Industries International, catalog #30-AH18, Acton, Mass.).
HBeAg expression for each animal was normalized to the control group of mice injected with PBS in order to account for the non-treatment related decline in expression of MC-HBV1.3. For evaluation of HBeAg in serum, HBeAg is analyzed from pooled group or subgroup serum samples. First, the HBeAg level for each pooled group or subgroup was divided by the pre-treatment level of expression in the same group or subgroup in order to determine the ratio of expression “normalized to pre-treatment”. Expression at a specific time point was then normalized to the control group by dividing the “normalized to pre-treatment” ratio for a group or subgroup by the average “normalized to pre-treatment” ratio of all samples from the normal PBS control group.

[2] = system: Hepatitis B Virus (HBV); test: Serum HBsAg levels in pHBV model mice (ELISA); type: in vivo; parameters: key to Average HBsAg levels normalized to pre-treatment (day −1) and PBS control / Average HBsAg levels normalized to pre-treatment and PBS control: fraction of pre-treatment level, relative to PBS control mean; settings: single s.c. injection day 1, Example 7
Description: as §1, §2
Mice were anesthetized with 2-3% isoflurane and blood samples were collected from the submandibular area into serum separation tubes (Sarstedt AG & Co., Nümbrecht, Germany). Blood was allowed to coagulate at ambient temperature for 20 min. The tubes were centrifuged at 8,000×g for 3 min to separate the serum and stored at 4° C.
Serum was collected and diluted 10 to 8000-fold in PBS containing 5% nonfat dry milk. […] HBsAg levels were determined with a GS HBsAg EIA 3.0 kit (Bio-Rad Laboratories, Inc., Redmond, Wash.) as described by the manufacturer. Recombinant HBsAg protein, ayw subtype, also diluted in nonfat milk in PBS, was used as a primary standard (Aldevron).
HBsAg expression for each animal was normalized to the control group of mice injected with PBS in order to account for the non-treatment related decline in expression of MC-HBV1.3. First, the HBsAg level for each animal at a time point was divided by the pre-treatment level of expression in that animal in order to determine the ratio of expression “normalized to pre-treatment”. Expression at a specific time point was then normalized to the control group by dividing the “normalized to pre-treatment” ratio for an individual animal by the average “normalized to pre-treatment” ratio of all mice in the normal PBS control group.

AD04982: HBV RNAi agent duplex AM06464-AS/AM06150-SS (antisense UACCAAUUUAUGCCUACAGCC; sense GGCUGUAGGCAUAAAUUGGUA; chemistry not fully specified)
Average HBeAg fold knockdown normalized to pre-treatment and PBS control ([1]; Day 8, 1.0 mg/kg): 2.1 Fold KD
Average HBeAg levels normalized to pre-treatment and PBS control ([1]; Day 8, 1.0 mg/kg): 0.471
Average HBeAg fold knockdown normalized to pre-treatment and PBS control ([1]; Day 8, 2.0 mg/kg): 3.0 Fold KD
Average HBeAg levels normalized to pre-treatment and PBS control ([1]; Day 8, 2.0 mg/kg): 0.335
Average HBeAg fold knockdown normalized to pre-treatment and PBS control ([1]; Day 15, 1.0 mg/kg): 2.4 Fold KD
Average HBeAg levels normalized to pre-treatment and PBS control ([1]; Day 15, 1.0 mg/kg): 0.424
Average HBeAg fold knockdown normalized to pre-treatment and PBS control ([1]; Day 15, 2.0 mg/kg): 3.2 Fold KD
Average HBeAg levels normalized to pre-treatment and PBS control ([1]; Day 15, 2.0 mg/kg): 0.310
Average HBeAg fold knockdown normalized to pre-treatment and PBS control ([1]; Day 22, 1.0 mg/kg): 1.8 Fold KD
Average HBeAg levels normalized to pre-treatment and PBS control ([1]; Day 22, 1.0 mg/kg): 0.562
Average HBeAg fold knockdown normalized to pre-treatment and PBS control ([1]; Day 22, 2.0 mg/kg): 2.4 Fold KD
Average HBeAg levels normalized to pre-treatment and PBS control ([1]; Day 22, 2.0 mg/kg): 0.411
Average HBeAg fold knockdown normalized to pre-treatment and PBS control ([1]; Day 29, 1.0 mg/kg): 2.0 Fold KD
Average HBeAg levels normalized to pre-treatment and PBS control ([1]; Day 29, 1.0 mg/kg): 0.513
Average HBeAg fold knockdown normalized to pre-treatment and PBS control ([1]; Day 29, 2.0 mg/kg): 2.3 Fold KD
Average HBeAg levels normalized to pre-treatment and PBS control ([1]; Day 29, 2.0 mg/kg): 0.442
Average HBeAg fold knockdown normalized to pre-treatment and PBS control ([1]; Day 36, 1.0 mg/kg): 1.4 Fold KD
Average HBeAg levels normalized to pre-treatment and PBS control ([1]; Day 36, 1.0 mg/kg): 0.705
Average HBeAg fold knockdown normalized to pre-treatment and PBS control ([1]; Day 36, 2.0 mg/kg): 2.0 Fold KD
Average HBeAg levels normalized to pre-treatment and PBS control ([1]; Day 36, 2.0 mg/kg): 0.500
fold decrease of HBeAg ([1]; Example 7 Group D, 2.0 mg/kg AD04982, day 15): 3.2 fold
Average HBsAg levels normalized to pre-treatment (day −1) and PBS control ([2]; Day 8, 1.0 mg/kg): 0.519 ± 0.058
Average HBsAg levels normalized to pre-treatment (day −1) and PBS control ([2]; Day 8, 2.0 mg/kg): 0.342 ± 0.062
Average HBsAg levels normalized to pre-treatment (day −1) and PBS control ([2]; Day 15, 1.0 mg/kg): 0.375 ± 0.012
Average HBsAg levels normalized to pre-treatment (day −1) and PBS control ([2]; Day 15, 2.0 mg/kg): 0.255 ± 0.046
Average HBsAg levels normalized to pre-treatment (day −1) and PBS control ([2]; Day 22, 1.0 mg/kg): 0.422 ± 0.046
Average HBsAg levels normalized to pre-treatment (day −1) and PBS control ([2]; Day 22, 2.0 mg/kg): 0.272 ± 0.122
Average HBsAg levels normalized to pre-treatment (day −1) and PBS control ([2]; Day 29, 1.0 mg/kg): 0.525
Average HBsAg levels normalized to pre-treatment (day −1) and PBS control ([2]; Day 29, 2.0 mg/kg): 0.314

— patent publication US20190255091A1, “RNAi AGENTS FOR [sequence] B VIRUS INFECTION” (priority 2016, published 2019)
